Holding throughout (assay): growth of human tumour cells (NCI), 48 h
Assay [1] concerns 786-0 renal.
The test system of assay [2] is KM12 colon.
The subject of assay [3] is OVCAR-3 ovarian.
Assay [4] concerns OVCAR-4 ovarian.
For assay [5], the system named is PC-3 prostate.
In assay [6] the test system is SF-295 CNS.
Assay [7] has as its system SF-539 CNS.
Assay [8] deals with SK-MEL-28 melanoma.
The test system of assay [9] is SNB-75 CNS.
Assay [10] concerns SR leukemia.

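The compound was tested at five concentrations on cells cultured in 96-well plates, with a 48-hour exposure period. GI50 marks 50% less growth. TGI denotes the concentration required for complete inhibition of growth.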

Regarding `COc1cc2c3c(n(CCCBr)c(=O)c2cc1OC)-c1ccc(F)cc1C3=O`, the GI50 in [1] was 4.73 µM; in assay [2] it was 35.3 µM; in [3], 24.6 µM; in assay [4], 40 µM; in [5], 45.8 µM; in [6] it was 1.69 µM. Also, the GI50 was 3.54 µM in [7], 39.8 µM in [8], 12.9 µM in assay [9] and 0.28 µM in [10]. In addition, the TGI in assay [1] was 17.9 µM; in assay [2] it was > 100 µM; in assay [3] it was 99.6 µM; in assay [4], > 100 µM; in [5], > 100 µM; in assay [6], 9.23 µM. The TGI was 15.2 µM in assay [7], > 100 µM in assay [8], 28.2 µM in [9] and 1.73 µM in assay [10].
Consider `COc1cccc(CCC(=O)c2cc3c(N)c(C(=O)Nc4cccc(Cl)c4C)sc3nc2C)c1`, for which the GI50 in assay [1] was 0.53 µM; in assay [2], 0.502 µM; in [3], 0.37 µM; in assay [4], 1.56 µM; in [5] it was 0.746 µM; in assay [6], 0.407 µM. Besides, the GI50 in assay [7] is 0.408 µM; in assay [8] it was 0.981 µM; in assay [9], 0.193 µM; in assay [10] it was 0.431 µM. The TGI in assay [1] is > 100 µM; in [2] it was > 100 µM; in [3], 2.78 µM; in [4], > 100 µM; in assay [5], > 100 µM; in [6], 20.1 µM. For the same molecule, the TGI in assay [7] was 2.78 µM; in [8] it was > 100 µM; in assay [9], 1.54 µM; in [10], > 100 µM.
For the molecule `CNC1=C(C(=O)OC)SC(c2ccccc2)(c2ccccc2)SC1`, the GI50 was 31.9 µM in assay [1]; 6.92 µM in assay [2]; > 100 µM in assay [3]; 8.58 µM in assay [4]; 15.3 µM in [5]; 6.06 µM in [6]. For the same molecule, the GI50 in [7] is 26.3 µM; in assay [8], 26.6 µM; in assay [9] it was 26.1 µM; in assay [10], 2.4 µM. The TGI is > 100 µM in [1]; > 100 µM in assay [2]; > 100 µM in assay [3]; 82.6 µM in assay [4]; > 100 µM in assay [5]; 39.4 µM in assay [6]. Further, the TGI in assay [7] was > 100 µM; in assay [8], > 100 µM; in [9], > 100 µM; in assay [10], 7.93 µM.
Turning to `O=C(CNc1ccc2c(=S)c3ccccc3[nH]c2c1)Nc1ccccc1-c1ccccc1NC(=O)CNc1ccc2c(=S)c3ccccc3[nH]c2c1`, the TGI is 32.9 µM in assay [1]; 42.7 µM in [2]; 55 µM in [3]; 45.2 µM in [4]; > 49.8 µM in assay [5]; 50.8 µM in [6]. Moreover, the TGI in [7] is 52 µM; in assay [8] it was 41.2 µM; in assay [9], 71.9 µM; in assay [10], 41.1 µM.
For `Nc1nccc2c1ncn2C1OC(CO)C(O)C1O` (stereo not drawn), the GI50 was > 100 µM in assay [1]; 54.5 µM in [2]; > 100 µM in [3]; > 100 µM in assay [4]; > 100 µM in assay [5]; > 100 µM in assay [6]. Also, the GI50 in assay [7] is > 100 µM; in assay [8], > 100 µM; in [9], > 100 µM; in assay [10], 41.6 µM. Also, the TGI in assay [1], in [2], in [3], in assay [4], in assay [5] and in assay [6] was > 100 µM each time. Besides, the TGI in assay [7], in [8], in assay [9] and in [10] was > 100 µM each time.
With `NCCCN1CCN(CCCNc2nc3ccccc3c3[nH]c4ccccc4c23)CC1`, the GI50 in assay [1] was 0.421 µM; in assay [2], 0.415 µM; in assay [3], 0.659 µM; in assay [4] it was 0.414 µM; in [5] it was 0.437 µM; in [6], 0.474 µM. For the same molecule, the GI50 in assay [7] was 0.438 µM; in assay [8], 0.888 µM; in assay [9], 0.691 µM; in [10], 0.352 µM. Besides, the TGI in [1] turned out to be 2.94 µM; in [3], 4.58 µM; in assay [4], 1.77 µM; in assay [5] it was 2.98 µM; in assay [6], 1.83 µM; in assay [7], 1.5 µM. Also, the results for the TGI in [8], in assay [9] and in assay [10] were 2.32 µM, 1.99 µM and 71.9 µM, respectively.
For the molecule `Cc1ccc2nc(-c3ccc(N)c4ccccc34)[nH]c2c1`, the GI50 is 0.161 µM in assay [1]; 2.46 µM in assay [2]; 0.748 µM in [3]; 8.58 µM in assay [4]; 0.0706 µM in [5]; 0.716 µM in [6]. In addition, the GI50 in assay [7] is 0.0607 µM; in [8], 3.38 µM; in [9], 1.38 µM; in [10] it was 0.325 µM. In addition, the TGI in assay [1] is 20.9 µM; in assay [2], 13.5 µM; in assay [3], 1.85 µM; in assay [4], > 100 µM; in assay [5], 22 µM; in assay [6], 9.53 µM. Moreover, the TGI in assay [7] is 1.64 µM; in assay [8], > 54.1 µM; in [10], 2.09 µM.
`Nc1c(C(=O)N/N=C/c2ccc(-c3cc(Cl)c(Cl)cc3Cl)o2)cnn1-c1ccnc2c(C(F)(F)F)cccc12`: the GI50 was 3.96 µM in assay [1]; 3.83 µM in [2]; 3.1 µM in assay [3]; 2.6 µM in assay [4]; 2.09 µM in assay [5]; 3.27 µM in assay [6]. Further, the GI50 in assay [7] was 5.48 µM; in assay [8], 4.03 µM; in assay [9], 4.01 µM; in assay [10], 4.53 µM. Further, the TGI was > 100 µM in assay [1]; > 100 µM in [2]; > 100 µM in assay [3]; 9.4 µM in assay [4]; 6.03 µM in [5]; > 100 µM in assay [6]. Also, the TGI in assay [7] is 38.7 µM; in assay [8], > 100 µM; in assay [9] it was 53 µM; in [10], 72.9 µM.
In the case of `Cc1cc(C)c(S(=O)(=O)N(CCc2cccc(Br)c2)Cc2ccc(-c3cccc(S(C)(=O)=O)c3)cc2)c(C)c1`, the GI50 in [1], in [2], in assay [3], in assay [4], in assay [5] and in [6] was > 100 µM in each case. Further, the GI50 in assay [7], in assay [8], in [9] and in assay [10] was > 100 µM each time. The TGI in assay [1], in [2], in assay [3], in [4], in [5] and in assay [6] was > 100 µM each time. The TGI in assay [7], in assay [8], in assay [9] and in assay [10] was > 100 µM throughout.
Consider `CCC1(NC(=O)c2cc(F)c(F)c(F)c2F)C(=O)NC(=O)N(C(C)C)C1=O` (stereo not drawn), for which the GI50 in [1] was > 100 µM; in assay [2], > 100 µM; in [3] it was 23.9 µM; in assay [4], > 100 µM; in assay [5], 21.6 µM; in [6], 27.4 µM. Besides, the GI50 in assay [7] is > 100 µM; in assay [8], 14.5 µM; in assay [9], 21.3 µM; in assay [10], 2.98 µM. The TGI was > 100 µM in [1]; > 100 µM in [2]; 53.1 µM in assay [3]; > 100 µM in assay [4]; 63.6 µM in assay [5]; 87.3 µM in [6]. Also, the TGI in assay [7] was > 100 µM; in assay [8] it was 45 µM; in assay [9], 45.9 µM; in assay [10], 9.65 µM.
In the case of `OCC(CCc1c[nH]c2ccccc12)c1c[nH]c2ccccc12` (stereo not drawn), the TGI in [1] was 29.5 µM; in assay [2] it was 32.5 µM; in [3], > 100 µM; in [4], 42.9 µM; in [5], 32.3 µM; in assay [6] it was 42.9 µM. In addition, the TGI in assay [7] turned out to be 33.6 µM; in [8], 36.6 µM; in assay [9] it was 45.7 µM; in assay [10], 41.5 µM.
On to `O=C(N/N=C/c1ccc(Cl)cc1Cl)c1ccc2nc(-c3ccc(Cl)cc3)[nH]c2c1`, for which the GI50 is 1.79 µM in [1]; 2.03 µM in assay [2]; 1.84 µM in assay [3]; 1.74 µM in [4]; 1.55 µM in [5]; 1.86 µM in assay [6]. The GI50 was 1.7 µM in assay [7], 1.58 µM in assay [8], 1.59 µM in assay [9] and 1.01 µM in assay [10]. Moreover, the TGI in [1] came out at 3.48 µM; in assay [2], 4.46 µM; in [3] it was 3.39 µM; in assay [4], 3.29 µM; in assay [5], 3.3 µM; in [6] it was 3.5 µM. The TGI in assay [7] was determined as 3.17 µM; in [8], 3.04 µM; in assay [9], 3.62 µM; in assay [10], 3.95 µM.
`COC(=O)[C@H](C)NC(=O)[C@@H](OC)[C@@H]1Cc2cc3cc(OC4CC(OC5CC(O)C(O)C(C)O5)C(O)C(C)O4)c(C)c(O)c3c(O)c2C(=O)[C@H]1OC1CC(OC2CC(OC3CC(C)(O)C(O)C(C)O3)C(O)C(C)O2)C(O)C(C)O1` (stereo partly drawn): the GI50 in assay [1] was 0.148 µM; in [2], 0.0944 µM; in assay [3] it was 0.118 µM; in assay [4], 0.163 µM; in assay [5], 0.184 µM; in [6] it was 0.0885 µM. Moreover, the GI50 in assay [7] is 0.0478 µM; in assay [8], 0.0309 µM; in [9] it was 0.0911 µM; in assay [10] it was 0.0271 µM. For the same molecule, the TGI in assay [1] was 9.16 µM; in [2], > 50 µM; in assay [3] it was 7.41 µM; in assay [4], 3.43 µM; in [5], > 50 µM; in assay [6], > 50 µM. The TGI in assay [7] is 2.62 µM; in [8], 0.351 µM; in [9] it was 0.774 µM; in [10] it was > 50 µM.
For the molecule `CCNNC(=O)[C@@H]1[C@H](c2cc(OC)c(OC)c(OC)c2)c2cc3c(cc2[C@H](O)[C@H]1CO)OCO3`, the GI50 in assay [1] is 0.495 µM; in assay [2], 0.387 µM; in assay [3], 0.275 µM; in assay [4], 2.37 µM; in [5], 0.391 µM; in assay [6] it was 0.32 µM. Further, the GI50 is 0.294 µM in assay [7], 0.599 µM in assay [8], 0.442 µM in assay [9] and 0.315 µM in [10]. In addition, the TGI in [1] is > 100 µM; in assay [2], > 100 µM; in assay [3], 0.804 µM; in assay [4] it was > 100 µM; in [5], > 100 µM; in [6], > 100 µM. The TGI is 0.802 µM in [7], > 100 µM in [8], > 100 µM in assay [9] and > 100 µM in assay [10].
Consider `O=c1oc2c3ccc4cnccc4c3[nH]c2c2ccccc12`, for which the GI50 in assay [1] was 4.47 µM; in assay [2], 13.1 µM; in assay [3] it was 18.3 µM; in assay [4], 15.5 µM; in [5], 55.8 µM; in [6] it was 41.7 µM. The GI50 is 11.5 µM in [7], 16.4 µM in [8], 20.6 µM in assay [9] and 1.78 µM in assay [10]. The TGI was 17.6 µM in assay [1]; > 100 µM in [2]; 32.4 µM in [3]; 31 µM in [4]; > 100 µM in assay [5]; > 100 µM in assay [6]. For the same molecule, the TGI in assay [7] came to 25.2 µM; in [8], 32 µM; in [9], 65.6 µM; in assay [10] it was 4.19 µM.
